Data taken from patent US12331068B2, “Compositions and methods for inhibiting CD73” (Peloton Therapeutics, Inc., priority 2018, dated 2025).
pIC50: −log10 of the molar value.

Assays:
[1] = biological target: T1, CD73 on U138 human neuroglioma cells (Homo sapiens, UniProt P21589); assay: CD73 Cell-Based Assay (inorganic phosphate from AMP, malachite green); details: AMP substrate, 2 hours at 37° C., read-out: CD73 Cell-Based assay IC50
T1 construct: U138 cells were obtained from ATCC and cultured in DMEM with 10% FBS; host or cells: U138 human neuroglioma cells
T1 sequence (P21589 27-549): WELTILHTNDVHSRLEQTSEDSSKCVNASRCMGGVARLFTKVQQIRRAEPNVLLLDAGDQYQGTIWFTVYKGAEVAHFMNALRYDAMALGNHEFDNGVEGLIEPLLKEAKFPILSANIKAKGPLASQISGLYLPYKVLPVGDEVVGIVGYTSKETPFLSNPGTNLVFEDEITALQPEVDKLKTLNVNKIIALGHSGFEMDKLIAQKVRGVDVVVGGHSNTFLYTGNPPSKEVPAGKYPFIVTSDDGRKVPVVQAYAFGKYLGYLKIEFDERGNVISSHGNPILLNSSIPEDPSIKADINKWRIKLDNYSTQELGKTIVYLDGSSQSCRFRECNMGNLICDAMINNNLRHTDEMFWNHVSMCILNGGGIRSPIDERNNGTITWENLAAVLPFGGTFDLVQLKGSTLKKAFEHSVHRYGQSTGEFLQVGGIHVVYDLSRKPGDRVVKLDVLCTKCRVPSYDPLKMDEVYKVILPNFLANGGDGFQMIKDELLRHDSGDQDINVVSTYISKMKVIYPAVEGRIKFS
Method: U138 human neuroglioma cells were used in these experiments. U138 cells were obtained from ATCC and cultured in DMEM with 10% FBS. 2500 cells were seeded into 96-well plate with 100 μL of media the day before the experiment. […] After washing, 100 μL of buffer was added to each well, then 100 μL of a mixture of AMP substrate (200 μM) and diluted compound was added to each well. The cells were incubated at 37° C. (with 5% CO2) for 2 hours. 50 μL of supernatant was transferred to a 96-well assay plate and the concentration of inorganic phosphate was determined using malachite green reagent (R&D System; Cat: DY996).

Human CD73 = biological target: T2, Human CD73 (Homo sapiens, UniProt P21589); assay: CD73 Enzyme Assay (EnzChek PNP/MESG kinetic readout of AMP hydrolysis); assay type: biochemical; details: 0.25 nM hCD73, 25 μM AMP; read-out: CD73 Enzyme Assay IC50
T2 construct: purchased R&D Systems; host or cells: CHO cells
T2 sequence (P21589 27-549): T1 sequence (P21589 27-549)
Method: A compound of the present disclosure (5 μL) was transferred to a 384-well assay plate. The compound was added in a 15 point, 3-fold serial dilution (300 μM to 0.0002 μM) in DMSO. […] The plate was immediately placed in a plate reader (Synergy 2 or Spark 10), and a reading was taken every minute for 10 to 20 minutes in a kinetic run at 360 nm. The linear portion of the curve was used to determine the observed rate (initial velocity). Low signal controls containing 100 μM adenosine 5′-(α,β-methylene) diphosphate and high signal controls containing no compound were measured for each plate.
IC50 values were calculated using Dotmatics template equation for 4-parameter fit. Results are expressed as % inhibition using the following equation: […]

| pIC50 [1] | pIC50 (Human CD73) | Compound |
| --- | --- | --- |
| > 8.00 | > 8.00 | N#Cc1c(Cl)nc2c(cnn2[C@@H]2O[C@H](COP(=O)(O)CP(=O)(O)O)[C@@H](O)[C@H]2O)c1NC1CC(F)(F)C1 [Compound 322] |
| > 8.00 | > 8.00 | N#Cc1c(Cl)nc2c(ccn2[C@@H]2O[C@H](COP(=O)(O)CP(=O)(O)O)[C@@H](O)[C@@H]2F)c1NC1CCCC1 [Compound 216] |
| > 8.00 | > 8.00 | N#Cc1c(Cl)nc2c(ncn2[C@@H]2O[C@H](COP(=O)(O)CP(=O)(O)O)[C@@H](O)[C@H]2O)c1NC1CCCC1 [Compound 209] |
| > 8.00 | > 8.00 | N#Cc1c(Cl)nc2c(ncn2[C@@H]2O[C@H](COCP(=O)(O)O)[C@@H](O)[C@H]2O)c1NC1CC2CC2C1 (stereo partly shown) [Compound 56] |
| > 8.00 | > 8.00 | C[C@@H](Nc1c(C#N)c(Cl)nc2c1cnn2[C@@H]1O[C@H](CS(=O)(=O)CP(=O)(O)O)[C@@H](O)[C@H]1O)c1ccccc1F [Compound 183] |
| > 8.00 | > 8.00 | N#Cc1c(Cl)nc2c(ccn2[C@@H]2O[C@H](CS(=O)(=O)CP(=O)(O)O)[C@@H](O)[C@@H]2F)c1N1CCC(F)(F)C1 [Compound 171] |
| > 8.00 | > 8.00 | N#Cc1c(Cl)nc2c(ccn2[C@@H]2O[C@H](COCP(=O)(O)O)[C@@H](O)[C@H]2O)c1NC1CCC1 [Compound 9] |
| > 8.00 | > 8.00 | C[C@@H](Nc1c(C#N)c(Cl)nc2c1cnn2[C@@H]1O[C@H](COP(=O)(O)CP(=O)(O)O)[C@@H](O)[C@H]1O)c1ccccc1F [Compound 248] |
| > 8.00 | 7.00 to 8.00 | N#Cc1nc2c(ccn2[C@@H]2O[C@H](CS(=O)(=O)CP(=O)(O)O)[C@@H](O)[C@H]2O)c(N2C[C@@H](F)[C@@H](F)C2)c1Cl [Compound 138] |
| > 8.00 | > 8.00 | N#Cc1c(Cl)nc2c(cnn2[C@@H]2O[C@H](COCP(=O)(O)O)[C@@H](O)[C@H]2O)c1NC1CC2CC2C1 (stereo partly shown) [Compound 70] |
| > 8.00 | > 8.00 | N#Cc1c(Cl)nc2c(ncn2[C@@H]2O[C@H](COCP(=O)(O)O)[C@@H](O)[C@H]2O)c1N1CCC(F)(F)C1 [Compound 94, ((((2R,3S,4R,5R)-5-(5-chloro-6-cyano-7-(3,3-difluoropyrrolidin-1-yl)-3H-imidazo[4,5-b]pyridin-3-yl)-3,4-dihydroxytetrahydrofuran-2-yl)methoxy)methyl)phosphonic acid] |
| > 8.00 | > 8.00 | N#Cc1c(Cl)nc2c(cnn2[C@@H]2O[C@H](COCP(=O)(O)O)[C@@H](O)[C@H]2O)c1NC1CC(F)C1 (stereo partly shown) [Compound 89] |
| > 8.00 | 7.00 to 8.00 | N#Cc1c(Cl)nc2c(cnn2[C@@H]2O[C@H](CS(=O)(=O)CP(=O)(O)O)[C@@H](O)[C@H]2O)c1N1CCC(F)(F)C1 [Compound 119, (((((2S,3S,4R,5R)-5-(6-chloro-5-cyano-4-(3,3-difluoropyrrolidin-1-yl)-1H-pyrazolo[3,4-b]pyridin-1-yl)-3,4-dihydroxytetrahydrofuran-2-yl)methyl)sulfonyl)methyl)phosphonic acid] |
| > 8.00 | > 8.00 | N#Cc1c(Cl)nc2c(ccn2[C@@H]2O[C@H](COCP(=O)(O)O)[C@@H](O)[C@H]2O)c1N[C@@H]1CCC(F)(F)C1 [Compound 46] |
| > 8.00 | > 8.00 | N#Cc1c(Cl)nc2c(ccn2[C@@H]2O[C@H](CS(=O)(=O)CP(=O)(O)O)[C@@H](O)[C@@H]2F)c1NC1CCCC1 [Compound 170] |
| > 8.00 | > 8.00 | C[C@@H](Nc1c(C#N)c(Cl)nc2c1cnn2[C@@H]1O[C@H](COP(=O)(O)CP(=O)(O)O)[C@@H](O)[C@H]1O)c1ccc(C#N)cc1 [Compound 249] |

| pIC50 [1] | pIC50 (Human CD73) | Compound |
| --- | --- | --- |
| > 8.00 | > 8.00 | N#Cc1c(Cl)nc2c(ccn2[C@@H]2O[C@H](COCP(=O)(O)O)[C@@H](O)[C@H]2O)c1N1C[C@@H](F)[C@@H](F)C1 [Compound 67, ((((2R,3S,4R,5R)-5-(6-chloro-5-cyano-4-((3S,4R)-3,4-difluoropyrrolidin-1-yl)-1H-pyrrolo[2,3-b]pyridin-1-yl)-3,4-dihydroxytetrahydrofuran-2-yl)methoxy)methyl)phosphonic acid] |
| > 8.00 | > 8.00 | N#Cc1c(Cl)nc2c(ccn2[C@@H]2O[C@H](CS(=O)(=O)CP(=O)(O)O)[C@@H](O)[C@H]2O)c1NC1CCC1 [Compound 19] |
| > 8.00 | > 8.00 | N#Cc1c(Cl)nc2c(cnn2[C@@H]2O[C@H](COCP(=O)(O)O)[C@@H](O)[C@H]2O)c1N1CC[C@@H](F)C1 [Compound 90] |
| > 8.00 | > 8.00 | C[C@@H](Nc1c(C#N)c(Cl)nc2c1ccn2[C@@H]1O[C@H](COP(=O)(O)CP(=O)(O)O)[C@@H](O)[C@@H]1F)c1ccc(C#N)cc1 [Compound 239] |
| > 8.00 | > 8.00 | N#Cc1nc2c(ccn2[C@@H]2O[C@H](CS(=O)(=O)CP(=O)(O)O)[C@@H](O)[C@H]2O)c(N2CCC(F)(F)C2)c1Cl [Compound 143] |
| > 8.00 | > 8.00 | N#Cc1c(Cl)nc2c(ccn2[C@@H]2O[C@H](COP(=O)(O)CP(=O)(O)O)[C@@H](O)[C@H]2O)c1N1CC2CCCC2C1 (stereo partly shown) [Compound 43] |
| > 8.00 | > 8.00 | C[C@H](Nc1c(C#N)c(Cl)nc2c1cnn2[C@@H]1O[C@H](CS(=O)(=O)CP(=O)(O)O)[C@@H](O)[C@H]1O)c1ccc(F)cc1 [Compound 184, (((((2S,3S,4R,5R)-5-(6-chloro-5-cyano-4-(((S)-1-(4-fluorophenyl)ethyl)amino)-1H-pyrazolo[3,4-b]pyridin-1-yl)-3,4-dihydroxytetrahydrofuran-2-yl)methyl)sulfonyl)methyl)phosphonic acid] |
| > 8.00 | > 8.00 | N#Cc1c(Cl)nc2c(ncn2[C@@H]2O[C@H](CS(=O)(=O)CP(=O)(O)O)[C@@H](O)[C@H]2O)c1NC1CC(F)(F)C1 [Compound 113, (((((2S,3S,4R,5R)-5-(5-chloro-6-cyano-7-((3,3-difluorocyclobutyl)amino)-3H-imidazo[4,5-b]pyridin-3-yl)-3,4-dihydroxytetrahydrofuran-2-yl)methyl)sulfonyl)methyl)phosphonic acid] |
| > 8.00 | > 8.00 | N#Cc1nc2c(ccn2[C@@H]2O[C@H](COP(=O)(O)CP(=O)(O)O)[C@@H](O)[C@H]2O)c(NC2CC3(CC3)C2)c1Cl [Compound 206] |
| > 8.00 | > 8.00 | C[C@H](Nc1c(C#N)c(Cl)nc2c1ccn2[C@@H]1O[C@H](CS(=O)(=O)CP(=O)(O)O)[C@@H](O)[C@H]1O)c1ccc(C#N)cc1 [Compound 198] |
| > 8.00 | > 8.00 | N#Cc1c(Cl)nc2c(ccn2[C@@H]2O[C@H](COCP(=O)(O)O)[C@@H](O)[C@H]2O)c1NC1CCCC1 [Compound 1, ((((2R,3S,4R,5R)-5-(6-chloro-5-cyano-4-(cyclopentylamino)-1H-pyrrolo[2,3-b]pyridin-1-yl)-3,4-dihydroxytetrahydrofuran-2-yl)methoxy)methyl)phosphonic acid] |
| > 8.00 | > 8.00 | N#Cc1c(Cl)nc2c(ccn2[C@@H]2O[C@H](COCP(=O)(O)O)[C@@H](O)[C@H]2O)c1N[C@H]1CCC(F)(F)C1 [Compound 4] |
| > 8.00 | > 8.00 | N#Cc1c(Cl)nc2c(ccn2[C@@H]2O[C@H](COP(=O)(O)CP(=O)(O)O)[C@@H](O)[C@H]2O)c1N1CCC(F)(F)C1 [Compound 37] |
| > 8.00 | > 8.00 | N#Cc1c(Cl)nc2c(ccn2[C@@H]2O[C@H](CS(=O)(=O)CP(=O)(O)O)[C@@H](O)[C@H]2O)c1N[C@H]1C[C@H](F)C1 [Compound 76, (((((2S,3S,4R,5R)-5-(6-chloro-5-cyano-4-(((1r,3R)-3-fluorocyclobutyl)amino)-1H-pyrrolo[2,3-b]pyridin-1-yl)-3,4-dihydroxytetrahydrofuran-2-yl)methyl)sulfonyl)methyl)phosphonic acid] |
| > 8.00 | > 8.00 | N#Cc1c(Cl)nc2c(cnn2[C@@H]2O[C@H](COP(=O)(O)CP(=O)(O)O)[C@@H](O)[C@H]2O)c1N1CC2CC2C1 (stereo partly shown) [Compound 72] |
| > 8.00 | > 8.00 | C[C@@H](Nc1c(C#N)c(Cl)nc2c1ccn2[C@@H]1O[C@H](CS(=O)(=O)CP(=O)(O)O)[C@@H](O)[C@H]1O)c1cccc(C#N)c1 [Compound 179] |
